Laboratory results as given in paper PMC4444998 (Journal of Natural Products, 2015).

Tests used:
Assay type in all cases: biochemical
[1] = system: Bovine trypsin; assay: Trypsin inhibition assay (Bz-Arg-AMC, fluorimetry); settings: for inhibition of trypsin protease activity: cyclotides kalata B1 or psysol 2 at 25 µM and 75 µM, respectively, triplicate
Description: (§1) Inhibitory activity was performed in triplicate in 96-well microtiter plates. Bovine trypsin (10 μL of a 10 ng/μL solution; Roche, Basel, Switzerland) or bovine α-chymotrypsin (10 μL of a 2.5 ng/μL solution; Sigma-Aldrich) was preincubated for 15 min at 37 °C with buffer (125 μL of a 20 mM Tris-HCl solution, pH 8.0) and with 3 μL of the cyclotide solution or ddH2O as negative control. After preincubation, trypsin substrate (Bz-Arg-AMC-HCl, 10 μL of a 3 mM solution prepared in 40% 1,4-dioxane; Bachem, Bubendorf, Switzerland) or chymotrypsin substrate (Ala-Ala-Phe-AMC, 10 μL of a 3 mM solution prepared in 40% 1,4-dioxane; Sigma-Aldrich), respectively, was added, and the reaction was incubated while shaking (90 rpm) for 1 h at 37 °C. The reaction was stopped with sodium acetate (150 μL, 1 M, pH 4), and the formation of AMC was measured by fluorimetry. The excitation and emission wavelengths were 360 ± 40 and 485 ± 20 nm, respectively. Phenylmethane-sulfonylfluoride (PMSF; 3 μL of a 5 mM solution in DMSO) was used as a positive control of inhibition; additional controls with DMSO solution only were also performed. Data were calculated as percentage of inhibition and are presented as mean ± STDEV (of three replicates).

[2] = biological target: T1, human prolyl oligopeptidase (POP) (Homo sapiens, UniProt P48147); assay: Prolyl oligopeptidase inhibition assay (Z-Gly-Pro-AMC, fluorimetry)
T1 construct: made in house
T1 sequence (P48147 1-710): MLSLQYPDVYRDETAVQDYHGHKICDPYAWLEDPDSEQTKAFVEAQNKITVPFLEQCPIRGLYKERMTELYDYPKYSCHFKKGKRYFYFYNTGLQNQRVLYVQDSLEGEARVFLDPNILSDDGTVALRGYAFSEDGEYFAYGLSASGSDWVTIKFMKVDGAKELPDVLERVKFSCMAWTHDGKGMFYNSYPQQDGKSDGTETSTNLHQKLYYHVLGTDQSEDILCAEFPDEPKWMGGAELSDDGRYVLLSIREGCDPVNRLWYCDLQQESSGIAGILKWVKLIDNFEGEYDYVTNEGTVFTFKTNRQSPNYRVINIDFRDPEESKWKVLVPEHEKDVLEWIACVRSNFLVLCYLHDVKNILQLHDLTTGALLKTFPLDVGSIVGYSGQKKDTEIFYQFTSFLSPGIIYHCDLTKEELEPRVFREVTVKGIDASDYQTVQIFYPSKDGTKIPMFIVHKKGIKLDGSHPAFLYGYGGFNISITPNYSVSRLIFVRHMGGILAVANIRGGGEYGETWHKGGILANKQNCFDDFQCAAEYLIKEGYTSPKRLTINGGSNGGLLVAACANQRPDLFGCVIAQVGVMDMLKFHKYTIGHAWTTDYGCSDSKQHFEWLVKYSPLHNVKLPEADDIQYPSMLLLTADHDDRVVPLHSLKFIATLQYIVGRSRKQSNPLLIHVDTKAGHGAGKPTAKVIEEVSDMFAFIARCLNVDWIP

[3] = system: bovine α-chymotrypsin; assay: Chymotrypsin inhibition assay (Ala-Ala-Phe-AMC, fluorimetry); settings: for inhibition of chymotrypsin activity: cyclotides at 25 µM and 75 µM, triplicate
Description: as §1

With `CC[C@H](C)[C@@H]1NC(=O)[C@@H]2CCCN2C(=O)[C@H](CC(C)C)NC(=O)CNC(=O)[C@H](CC(N)=O)NC(=O)[C@H](CCCNC(=N)N)NC(=O)[C@H]([C@@H](C)O)NC(=O)[C@@H]2CSSC[C@@H]3NC(=O)[C@H]([C@@H](C)O)NC(=O)CNC(=O)CNC(=O)[C@H](C(C)C)NC(=O)[C@@H]4CSSC[C@H](NC(=O)[C@H]([C@@H](C)O)NC(=O)[C@H](CSSC[C@H](NC1=O)C(=O)NCC(=O)N[C@@H](CCC(=O)O)C(=O)N[C@@H](CO)C(=O)N4)NC(=O)CNC(=O)[C@@H]1CCCN1C(=O)[C@H]([C@@H](C)O)NC(=O)[C@H](CC(N)=O)NC3=O)C(=O)N[C@@H]([C@@H](C)O)C(=O)N[C@@H](Cc1c[nH]c3ccccc13)C(=O)N1CCC[C@H]1C(=O)N[C@@H](C(C)C)C(=O)N2` [psysol 2 (1), psysol 2] the “inhibition of trypsin protease activity” value [1] was “not inhibited”, the IC50 ([2]; POP enzyme inhibition potency IC50, synthetic cyclotide, mean of three replicates) was 27.8 µM and the “inhibition of chymotrypsin activity” value [3] was “had no effect”.
For `O=S(=O)(F)Cc1ccccc1` [PMSF, Phenylmethane-sulfonylfluoride], the “inhibition of trypsin activity (positive control)” value ([1]; 100 µM) was “able to inhibit” and the “inhibition of chymotrypsin activity (positive control)” value ([3]; 100 µM) was “completel y blocked”.
With `CC(C)C[C@@H]1NC(=O)CNC(=O)[C@H](CC(N)=O)NC(=O)[C@H](CCCNC(=N)N)NC(=O)[C@H]([C@@H](C)O)NC(=O)[C@@H]2CSSC[C@@H]3NC(=O)[C@H]([C@@H](C)O)NC(=O)CNC(=O)CNC(=O)[C@H](C(C)C)NC(=O)[C@@H]4CSSC[C@H](NC(=O)[C@H]([C@@H](C)O)NC(=O)[C@H](CSSC[C@H](NC(=O)[C@H](C(C)C)NC(=O)[C@@H]5CCCN5C1=O)C(=O)NCC(=O)N[C@@H](CCC(=O)O)C(=O)N[C@@H]([C@@H](C)O)C(=O)N4)NC(=O)CNC(=O)[C@@H]1CCCN1C(=O)[C@H]([C@@H](C)O)NC(=O)[C@H](CC(N)=O)NC3=O)C(=O)N[C@@H](CO)C(=O)N[C@@H](Cc1c[nH]c3ccccc13)C(=O)N1CCC[C@H]1C(=O)N[C@@H](C(C)C)C(=O)N2` [kalata B1] the “inhibition of trypsin protease activity” value [1] was “not inhibited”, the “selectivity toward inhibition of POP over trypsin and chymotrypsin” value ([2]; POP IC50 compared with no inhibition of trypsin/chymotrypsin at 25 and 75 μM) was “at least an order of magnitude more selective” and the “inhibition of chymotrypsin activity” value [3] was “had no effect”.
